Source: patent publication US20240050587A1, “LIPOSOMES COMPRISING ANTI-LOX ANTIBODY” (ISTITUTO SCIENTIFICO ROMAGNOLO PER LO STUDIO E LA CURA DEI …, priority 2019, published 2024)
Where a name gives a salt, the structure may show the parent alone.

Key:
[1] = system: collagen scaffold cultured with MDA-MB-231; test: Mechanical testing: stiffness of collagen scaffolds under unconfined uniaxial compression; assay type: cell-based, human; settings: 72 h of treatment; CTR 67.3 kPa
From the text: As previously described, an in-house built instrument prototype was developed by the inventors to apply a state of unconfined uniaxial compression to the collagen scaffolds. The applied stress (r, in kPa) could then be analyzed by dividing the applied force by the cross section of the sample. The applied force consisted of a pre-load of 1.41 kPa held constantly for 30 s; the full load of 5.97 kPa was then constantly applied for 30 s. The stiffness (compressive modulus, in kPa) of the collagen scaffold cultured with MDA-MB-231 and exposed for 72 h to all treatment groups was computed as the ratio between the increment of stress and increment of strain from the preload to the full load values. The samples were analyzed in air immediately after having been removed from the PBS where they were soaked. Five samples of each type were tested and each specimen was tested 10 times.

[2] = system: MDA-MB-231 orthotopic xenograft; test: In vivo drug testing: tumor growth in orthotopic xenograft (caliper and BLI); set-up: species or system NU/NU nude mice; settings: weekly i.v. 3.24 mg/Kg; caliper; mean ± spread
Procedure: MDA-MB-231 labeled with luciferase probe (2×10^6 cells/100 μl matrigel) were orthotopically injected into the right mammary fad pad of female immunodeficient NU/NU nude mice [NU-Foxn1nu] 8-10 weeks old (Charles River Laboratories, Wilmington, MA, USA). NU/NU nude mice were housed five per cage at the HMRI animal facility, there were maintained under pathogen free conditions and on low-fluorescence diet according to the National Institutes of Health guidelines.
(§1) Tumor size and body weight were measured with caliper and a digital balance once a week. Tumor volume was calculated according to the formula (W×W×L)/2, where W and L represent the width and the length of tumor, respectively. Body weight change % was calculated were calculated by comparing weights at the start and end of therapy throught the formula throught the formula weight DO/weight D33%.
Furthermore, the impact on tumor growth was validated by performing bioluminescence imaging (BLI) of TNBC tumors at Day 0 and Day 33 (FIG. 4B, Figure S4 supportive information). This was performed in order to support the caliper measurements since the bioluminescent signal obtained from BLI is directly related to the viability of cells and could serve as metric to evaluate impact of therapy. The BLI quantification percentage was calculated throught the formula BLI DO/BLI D33%. […]

[3] = system: MDA-MB-231 orthotopic xenograft; test: Histological analysis (H&E) and collagen quantification of explanted tumors; assay type: in vivo, NU/NU nude mice; settings: H&E sections of explanted tumors, 55 days post treatment; control 5%
Procedure: (§2) Explanted mice organs (heart, liver, spleen, kidneys, lungs, tibia) and tumors were washed twice with PBS, embedded in a cryomold in O.C.T. (Tissue-Tek® O.C.T. Compound, Sakura® Finetek), and frozen at −80 degree. Ten μm-thick slides were obtained cutting tissues block with a cryostat at −20 degree. The slides were then stored at −20 degree until the analysis.
(§3) Hematoxylin and eosin (H&E) staining was performed to evaluate the efficacy and safety of Lipo-EPI-LOX compared to the other treatment groups. Briefly the organs and tumor slides were thawed, hydrated and stained with H&E following the manufacturer's instructions. The stained slides were analyzed with an optical Zeiss Axioskop microscope (Carl Zeiss, Gottingen, Germany) equipped with a Polaroid camera.
Tumors frozen 5-μm-thick slides were fixed for 5 min in formalin 10% solution, then washed and stained with Weigert's haematoxylin. Then the sections were stained with 0.1% (Direct Red 80) (Sigma Aldrich) picrosirius red in saturated aqueous solution of picric acid. The stained slides were analyzed with the NIS Elements software (Nikon Corporation, Tokyo, Japan).

[4] = system: MDA-MB-231 orthotopic xenograft; test: Survival study (Kaplan-Meier); assay type: in vivo, NU/NU nude mice; settings: 55 days post treatment
Procedure: Mice (n=10 per cohort) were sacrificed when the tumor volume reached 2000 mm^3 or when showing signs of morbidity. Data were analyzed using the Kaplan-Meier method. Comparisons among different treatment groups were performed using the log rank test for trend and considered significant with a p value less than 0.05.

[5] = Safety: body weight change and H&E histology of hearts; assay type: in vivo, NU/NU nude mice
Procedure: as §1, §2, §3

[6] = human, clinical data [28]; cited from earlier work

For `COc1cccc2c1C(=O)c1c(O)c3c(c(O)c1C2=O)C[C@@](O)(C(=O)CO)C[C@@H]3O[C@H]1C[C@H](N)[C@@H](O)[C@H](C)O1` [Free EPI, epirubicin hydrochloride], the “average compressive modulus (scaffold stiffness)” value [1] was 64.38 kPa, the “tumor volume (tumor growth)” value [2] was 1029 mm^3 and the necrotic tumor cells [3] was 20%. The survival [4] was “less than 50%”, the “inflammatory infiltrate in myocardial tissue (cardiotoxicity)” value ([5]; H&E hearts) was “increment of cellularity due to the inflammatory infiltrate” and the “increase in body weight” value ([5]; end of study, D33 versus D0, CTR 3.3%) was 3.7%. For the same molecule, the plasma peak concentration [6] was 3.4 µg/mL.
